Results from US20260001871A1, “TRIAZOLE DERIVATIVES AS MODULATORS OF MAS-RELATED G-PROTEIN RECEPTOR D” (ESCIENT PHARMACEUTICALS, INC., priority 2022, published 2026).

Molecular target: human MRGPRD (Homo sapiens, UniProt Q8TDS7)
Assay: MRGPRD antagonist activity, IP-One HTRF assay in CHO cells stably expressing human MRGPRD (versus 100 μM β-Alanine agonist)
Assay type: cell-based
Summary of the method: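 IP-1 HTRF read-out, with IC50 from HTRF ratio curves and percent antagonism relative to maximal efficacy (mean, SEM). Antagonists and agonist were co-incubated 1 h at 37 °C plus 1 h at room temperature on overnight-plated MRGPRD-CHO cells in LiCl-containing Tris buffer, pH 8.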

Chain of human MRGPRD (Q8TDS7 whole entry): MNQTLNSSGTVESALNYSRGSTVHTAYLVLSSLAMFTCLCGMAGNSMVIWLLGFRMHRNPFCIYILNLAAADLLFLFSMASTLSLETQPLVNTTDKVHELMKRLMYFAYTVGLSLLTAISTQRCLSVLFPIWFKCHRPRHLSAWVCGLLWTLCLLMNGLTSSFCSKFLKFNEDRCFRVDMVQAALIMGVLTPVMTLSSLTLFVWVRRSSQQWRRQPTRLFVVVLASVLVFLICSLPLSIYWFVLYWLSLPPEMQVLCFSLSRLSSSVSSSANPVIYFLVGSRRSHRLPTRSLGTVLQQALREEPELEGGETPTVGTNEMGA

IC50 [nM] | SMILES
100 to 500 | N#Cc1ccc(-c2ccc(-n3nnc(C(=O)NC4(c5cncc(Cl)c5)CC4)c3C3CC3)cc2)cc1 [Compound 18-1]
100 to 500 | CCc1ccc(C2(NC(=O)c3nnn(-c4ccc(-c5ccc(C#N)cc5)cc4)c3C3CC3)CC2)cn1 [Compound 18-2]
500 to 1000 | N#Cc1ccc(-c2ccc(-n3nnc(C(=O)NC4(c5cccnc5)CC4)c3C3CC3)cc2)cc1 [Compound 18-3, 1-(4′-cyano-[1,1′-biphenyl]-4-yl)-5-cyclopropyl-N-(1-(pyridin-3-yl)cyclopropyl)-1H-1,2,3-triazole-4-carboxamide]
1000 to 3000 | NC(=O)c1ccc(-c2ccc(-n3nnc(C(=O)NC4(c5cccnc5)CC4)c3C3CC3)cc2)cc1 [Compound 18-4]
1000 to 3000 | Cc1cncc(C2(NC(=O)c3nnn(-c4ccc(-c5ccc(C#N)cc5)cc4)c3C3CC3)CC2)c1 [Compound 18-5]
1000 to 3000 | COc1cncc(C2(NC(=O)c3nnn(-c4ccc(-c5ccc(C#N)cc5)cc4)c3C3CC3)CC2)c1 [Compound 18-6]
1000 to 3000 | COc1ccc(C2(NC(=O)c3nnn(-c4ccc(-c5ccc(C(N)=O)cc5)cc4)c3C3CC3)CC2)cn1 [Compound 18-7]
1000 to 3000 | N#Cc1ccc(-c2ccc(-n3nnc(C(=O)NC4(c5cccnc5)CC4)c3C3CC3)cc2)cn1 [Compound 18-8]
1000 to 3000 | N#CCc1ccc(-c2ccc(-n3nnc(C(=O)NC4(c5cccnc5)CC4)c3C3CC3)cc2)cc1 [Compound 18-9]
1000 to 3000 | NC(=O)c1ccc(-c2ccc(-n3nnc(C(=O)NC4(c5cccnc5)CC4)c3C3CC3)cc2)cn1 [Compound 18-10]
< 100 | Cc1nn(-c2ccccc2)c(C)c1-c1ccc(-n2nnc(C(=O)NC3(c4cccnc4)CC3)c2C2CC2)cc1 [Compound 18-11]
1000 to 3000 | CCn1cc(C2(NC(=O)c3nnn(-c4ccc(-c5ccccc5)cc4)c3C3CC3)CC2)cn1 [Compound 18-12]
100 to 500 | N#Cc1ccc(-c2ccc(-n3nnc(C(=O)NC4(c5cncc(Cl)c5)CC4)c3C3CC3)cc2)cc1F [Compound 18-13]
100 to 500 | CCn1cc(C2(NC(=O)c3nnn(-c4ccc(-c5ccc(C#N)c(F)c5)cc4)c3C3CC3)CC2)cn1 [Compound 18-14]
500 to 1000 | COc1cc(C#N)ccc1-c1ccc(-n2nnc(C(=O)NC3(c4cncc(Cl)c4)CC3)c2C2CC2)cc1 [Compound 18-15]
500 to 1000 | Cc1cc(C#N)ccc1-c1ccc(-n2nnc(C(=O)NC3(c4cncc(Cl)c4)CC3)c2C2CC2)cc1 [Compound 18-16]
1000 to 3000 | Cc1nn(C)c(C)c1-c1ccc(-n2nnc(C(=O)NC3(c4cccnc4)CC3)c2C2CC2)cc1 [Compound 18-17]

IC50 [nM] | SMILES
1000 to 3000 | N#Cc1ccc(-c2ccc(-n3nnc(C(=O)NC4(c5cncc(F)c5)CC4)c3C3CC3)cc2)cc1 [Compound 18-18]
1000 to 3000 | O=C(NC1(c2cncc(Cl)c2)CC1)c1nnn(-c2ccc(-c3cnn(Cc4ccccc4)c3)cc2)c1C1CC1 [Compound 18-19]
100 to 500 | CC(=O)c1cccc(-c2cccc(-n3nnc(C(=O)NC4(c5cccnc5)CC4)c3C3CC3)c2)c1 [Compound 18-20]
1000 to 3000 | N#CCc1ccc(-c2cccc(-n3nnc(C(=O)NC4(c5cccnc5)CC4)c3C3CC3)c2)cc1 [Compound 18-21]
> 3000 | CC(=O)c1cccc(-c2cccc(-n3nnc(C(=O)NC(C)c4nc5ccccc5n4C)c3C3CC3)c2)c1 (stereo not shown) [Compound 18-22]
100 to 500 | Cc1nn(C)c(C)c1-c1ccc(-n2nnc(C(=O)NC3(c4cccnc4)CC3)c2C(C)C)cc1 [Compound 18-23]
500 to 1000 | COc1ccc(C2(NC(=O)c3nnn(-c4ccc(-c5ccc(C#N)cc5)cc4)c3C(C)C)CC2)cn1 [Compound 18-24]
500 to 1000 | COc1ccc(C2(NC(=O)c3nnn(-c4ccc(-c5c(C)nn(C)c5C)cc4)c3C(C)C)CC2)cn1 [Compound 18-25]
1000 to 3000 | CC(C)c1c(C(=O)NC2(c3cccnc3)CC2)nnn1-c1ccc(-c2ccc(C#N)c(F)c2)cc1 [Compound 18-26]
1000 to 3000 | CCn1cc(C2(NC(=O)c3nnn(-c4ccc(-c5ccc(C#N)nc5)cc4)c3C(C)C)CC2)cn1 [Compound 18-27]
1000 to 3000 | COc1ccc(C2(NC(=O)c3nnn(-c4ccc(-c5ccccc5)cc4)c3C(C)C)CC2)cn1 [Compound 18-28]
> 3000 | CC(C)c1c(C(=O)NC2(c3cccnc3)CC2)nnn1-c1ccc(-c2ccc(C#N)nc2)cc1 [Compound 18-29]
> 3000 | CC(C)c1c(C(=O)NC2(c3cccnc3)CC2)nnn1-c1ccc(-c2ccccc2)cc1 [Compound 18-30]
500 to 1000 | Cc1ccc(CNC(=O)c2nnn(-c3ccc(-c4c(C)nn(C)c4C)cn3)c2C2CC2)cn1 [Compound 19-1]
100 to 500 | CCn1nc(C)c(-c2ccc(-n3nnc(C(=O)NC4(c5cccnc5)CC4)c3C3CC3)cc2)c1C [Compound 19-2, 5-cyclopropyl-1-(4-(1-ethyl-3,5-dimethyl-1H-pyrazol-4-yl)phenyl)-N-(1-(pyridin-3-yl)cyclopropyl)-1H-1,2,3-triazole-4-carboxamide]
500 to 1000 | Cc1nn2ccccc2c1-c1ccc(-n2nnc(C(=O)NC3(c4cccnc4)CC3)c2C2CC2)cc1 [Compound 19-3]
100 to 500 | COc1ccc(C2(NC(=O)c3nnn(-c4ccc(-c5c(C)nn6ccccc56)cc4)c3C(C)C)CC2)cn1 [Compound 19-4]

Further lines, the compound ahead of its results:

SMILES | IC50 [nM]
Cc1cc(NC(=O)c2nnn(-c3ccc(-c4ccc(F)nc4)cc3)c2C2CC2)ccn1 [Compound 17-2] | 100 to 500
Cc1ccc(CNC(=O)c2nnn(-c3ccc(-c4ccc(C#N)c(F)c4)cc3)c2C2CC2)cn1 [Compound 17-3, 1-(4′-cyano-3′-fluoro-[1,1′-biphenyl]-4-yl)-5-cyclopropyl-N-((6-methylpyridin-3-yl)methyl)-1H-1,2,3-triazole-4-carboxamide] | 100 to 500
CCn1cc(CNC(=O)c2nnn(-c3ccc(-c4ccc(C#N)cc4)cc3)c2C2CC2)cn1 [Compound 17-4] | 100 to 500
CCn1cc(CNC(=O)c2nnn(-c3ccc(-c4ccc(CC#N)cc4)cc3)c2C2CC2)cn1 [Compound 17-5] | 100 to 500
COc1ccc(C2(NC(=O)c3nnn(-c4ccc(-c5ccc(C#N)cc5)cc4)c3C3CC3)CC2)cn1 [Compound 17-6] | 100 to 500
CCn1cc(CNC(=O)c2nnn(-c3ccc(-c4ccc(F)cc4)cc3)c2C2CC2)cn1 [Compound 17-7] | 1000 to 3000
CCn1cc(CNC(=O)c2nnn(-c3ccc(-c4ccc(C(N)=O)cc4)cc3)c2C2CC2)cn1 [Compound 17-8] | 1000 to 3000
Cc1ccc(-c2ccc(-n3nnc(C(=O)Nc4ccnc(C)c4)c3C3CC3)cc2)cn1 [Compound 17-9] | 100 to 500
Cc1nn(C)c(C)c1-c1ccc(-n2nnc(C(=O)Nc3ccncc3)c2C(C)C)cc1 [Compound 17-10] | < 100
CCn1cc(CNC(=O)c2nnn(-c3ccc(-c4c(C)nn(C)c4C)cc3)c2C(C)C)cn1 [Compound 17-11] | < 100
COc1cc(-c2ccc(C#N)cc2)ccc1-n1nnc(C(=O)Nc2ccnc(C)c2)c1C(C)C [Compound 17-12] | 100 to 500
CCn1cc(CNC(=O)c2nnn(-c3ccc(-c4ccccc4)cc3)c2C(C)C)cn1 [Compound 17-13] | 100 to 500
Cc1cc(NC(=O)c2nnn(-c3ccc(-c4ccc(C#N)cc4)cc3F)c2C(C)C)ccn1 [Compound 17-14] | 100 to 500
Cc1cc(NC(=O)c2nnn(-c3ccc(-c4ccc(C#N)cc4)cn3)c2C(C)C)ccn1 [Compound 17-15] | 100 to 500
Cc1nn(C)c(C)c1-c1ccc(-n2nnc(C(=O)Nc3ccccc3)c2C(C)C)cc1 [Compound 17-16] | 100 to 500
CCn1cc(CNC(=O)c2nnn(-c3ccc(-c4ccc(C#N)cc4)cc3)c2C(C)C)cn1 [Compound 17-17] | 100 to 500
Cc1nn(C)c(C)c1-c1ccc(-n2nnc(C(=O)Nc3cccc(C#N)c3)c2C(C)C)cc1 [Compound 17-18] | 100 to 500

SMILES | IC50 [nM]
CCn1cc(CNC(=O)c2nnn(-c3ccc(-c4ccc(C#N)cc4)cc3F)c2C(C)C)cn1 [Compound 17-19] | 100 to 500
CCn1cc(CNC(=O)c2nnn(-c3ccc(-c4ccc(C#N)cc4)cn3)c2C(C)C)cn1 [Compound 17-20] | 100 to 500
CCn1cc(CNC(=O)c2nnn(-c3ccc(-c4ccc(C#N)cc4)cc3OC)c2C(C)C)cn1 [Compound 17-21] | 100 to 500
Cc1nn(C)c(C)c1-c1ccc(-n2nnc(C(=O)NCc3cccnc3)c2C(C)C)cc1 [Compound 17-22] | 100 to 500
CCn1cc(C2(NC(=O)c3nnn(-c4ccc(-c5ccc(C#N)c(F)c5)cc4)c3C(C)C)CC2)cn1 [Compound 17-23] | 100 to 500
Cc1nn(C)c(C)c1-c1ccc(-n2nnc(C(=O)NC3C(C)(C)C3(C)C)c2C(C)C)cc1 [Compound 17-24] | 100 to 500
Cc1nn(C)c(C)c1-c1ccc(-n2nnc(C(=O)Nc3ccccn3)c2C(C)C)cc1 [Compound 17-25] | 100 to 500
CCn1cc(CNC(=O)c2nnn(-c3ccc(-c4ccc(C#N)cc4)cc3)c2C2CCC2)cn1 [Compound 17-26] | 500 to 1000
CC(C)c1c(C(=O)Nc2ccncc2)nnn1-c1ccc(-c2cnn(C)c2)cc1 [Compound 17-27] | 500 to 1000
Cc1cc(NC(=O)c2nnn(-c3ccc(-c4ccc(C#N)cc4)cc3)c2C(C)C)ccn1 [Compound 17-28] | 500 to 1000
Cc1nn(C)c(C)c1-c1ccc(-n2nnc(C(=O)Nc3cccnc3)c2C(C)C)cc1 [Compound 17-29] | 500 to 1000
CC(C)c1c(C(=O)Nc2cccc(C#N)c2)nnn1-c1ccc(-c2cnn(C)c2)cc1 [Compound 17-30] | 500 to 1000
Cc1cc(NC(=O)c2nnn(-c3ccc(-c4ccccc4)cc3)c2C(C)C)ccn1 [Compound 17-31] | 1000 to 3000
CC(C)c1c(C(=O)NC2(c3cccnc3)CC2)nnn1-c1ccc(-c2ccc(C#N)cc2)cc1 [Compound 17-32] | 1000 to 3000
Cc1ccc(CNC(=O)c2nnn(-c3ccc(-c4ccc(C#N)nc4)cc3)c2C(C)C)cn1 [Compound 17-33] | 1000 to 3000
Cc1nn(C)c(C)c1-c1ccc(-n2nnc(C(=O)NC3CC3)c2C(C)C)cc1 [Compound 17-34] | > 3000
